Assay results: US20030153536A1, “Compounds and methods of treating transplant rejection” (priority 2001, published 2003)

Key:
[1] = Tolerability in rat aortic allograft study; type: in vivo
Description: (§1) Compound A was administered subcutaneously to recipient animals three days prior to the surgery and once daily for 90 days thereafter. […] Thereafter, the dose was reduced to 30 mg/kg/d for 6 days and then further reduced to 5 mg/kg/d for the remainder of the study.
The group receiving the 40/30/5 mg/kg/d dose of Compound A evidenced the highest degree of inhibition despite the fact that it received only a 40 mg/kg/d dose for 13 days prior to dosing down. […] After 90 days of dosing, the trough plasma levels were 10, 18 and 28 uM for the 10,20 and 40/30/5 mg/kg/d doses, respectively.

[2] = test system: human aortic smooth muscle cells (AoSMC); experiment: Smooth muscle cell proliferation inhibition (3H-thymidine incorporation); type: cell-based; details: 5% serum-stimulated AoSMC, 20 hr incubation, read-out: SMC Proliferation Inhibition (IC50)
Description: Cultured human aortic smooth muscle cells (AoSMC) were obtained from Clonetics, Inc. and were used below passage 10. Cells were seeded in 24-well plates. When cells were 80% confluent, they were made quiescent by adding media containing 0.2% serum (as compared to 5% serum in normal culture media) for 48 hours. The cells were then stimulated by 5% serum in the presence or absence of compounds dissolved in DMSO. To establish a dose curve and IC50 for each compound, multiple concentrations (20,15,10,5 μM) were used. Rapamycin (at 1 and 0.1 μM) was used as a positive control for the assay. After a 20 hr incubation with or without test compounds, ^3H-thymidine (0.5 μCi/per well) was added to the cells for 4 hours of labeling. Washed cells were then lysed in NaOH and the amount of^3H-thymidine incorporation was determined by a scintillation counter.

[3] = test system: ACI-to-Lewis rat aortic allograft; experiment: Rat aortic allograft model (graft arteriosclerosis); type: in vivo; details: for percent inhibition of IM ratio / percent inhibition of the % LN (luminal narrowing): day 90, vs vehicle control
Description: Compound A was evaluated for graft arteriosclerosis resulting from aortic heterotropic transplantation. This is a model of graft arteriopathy which is the major obstacle to long term success of solid organ transplantation.
Donor descending aortas from ACI rats were heterotypically transplanted into Lewis rat abdomens in end-to-end fashion with minimal ischemic time. 55 rats were assigned to five groups as follows:
as §1
On day 90, the allograft segment was removed, fixed in 10% buffered formal in and paraffin embedded. Sections were stained with von Geisson's elastic stain, and intima-to-media area (IM) ratio and percent luminal narrowing (% LN) were assessed by digital morphometry (See FIGS. 1 and 2). Blood was collected at regular intervals throughout the study and plasma evaluated for compound levels (See FIG. 3).

[4] = background statement; cited from earlier work
[5] = 20 mg and 40/30/5 mg/kg/d doses

CC(C)(Sc1cc(C(C)(C)C)c(O)c(C(C)(C)C)c1)Sc1cc(C(C)(C)C)c(OCCCC(=O)O)c(C(C)(C)C)c1 [Compound A, 4-[4-[[1-[[3,5-bis(1,1-dimethylethyl)-4-hydroxyphenyl]thio]-1-methylethyl]thio]-2,6-bis(1,1-dimethylethyl)phenoxy]butyric acid]
toxic side effects ([1]; 20 mg/kg/d): without grossly discemable toxic side effects
body weight change ([1]; 40 mg/kg/d group, until dose dropped to 5 mg/kg/d): initially lost weight
adverse findings leading to dose reduction ([1]; 40 mg/kg/d subcutaneous, 13 days): failure to gain weight and skin irritation
tolerability of treatment ([1]; 10 and 20 mg/kg/d subcutaneous): well tolerated
IC50 [2]: 5.5 µM
percent inhibition of IM ratio ([3]; 10 mg/kg/d subcutaneous): 11%
percent inhibition of the % LN (luminal narrowing) ([3]; 10 mg/kg/d subcutaneous): 22%
% LN compared to the vehicle group [3, 5]: significantly lower
IM ratio compared to the vehicle group [3, 5]: significantly lower
percent inhibition of IM ratio ([3]; 20 mg/kg/d subcutaneous): 28%
percent inhibition of the % LN (luminal narrowing) ([3]; 20 mg/kg/d subcutaneous): 33%
inhibition of aortic neointimal growth ([3]; 10, 20, 40/30/5 mg/kg/d): dose-dependent inhibition
percent inhibition of IM ratio ([3]; 40/30/5 mg/kg/d subcutaneous): 49%
percent inhibition of the % LN (luminal narrowing) ([3]; 40/30/5 mg/kg/d subcutaneous): 52%

CC(C)(Sc1cc(C(C)(C)C)c(O)c(C(C)(C)C)c1)Sc1cc(C(C)(C)C)c(OC(=O)CN)c(C(C)(C)C)c1 [Compound I]
IC50 [2]: 8 µM

CCOC(=O)CC[C@H](NCC(O)COc1c(C(C)(C)C)cc(SC(C)(C)Sc2cc(C(C)(C)C)c(O)c(C(C)(C)C)c2)cc1C(C)(C)C)C(=O)OCC (some centres unmarked) [E]
IC50 [2]: 3.7 µM

C=CC[C@@H]1/C=C(\C)C[C@H](C)C[C@H](OC)[C@H]2O[C@@](O)(C(=O)C(=O)N3CCCC[C@H]3C(=O)O[C@H](/C(C)=C/[C@@H]3CC[C@@H](O)[C@H](OC)C3)[C@H](C)[C@@H](O)CC1=O)[C@H](C)C[C@@H]2OC [FK506, tacrolimus]
immunosuppressive activity relative to cyclosporin [4]: 10-100 times
